Measurements from patent publication US20200362302A1, “METHOD FOR PRODUCING CELL” (FUJIFILM Corporation, priority 2018, published 2020).

Test system: human iPS cells
Test: treatment efficiency by flow cytometry (positive percentage of CD75)
Type: cell-based
Description: The culture and the treatment were performed in the same manner as in Example 1 except that the treatment was performed under conditions in which a concentration of PD0325901 was 0.3 to 1.0 μmol/L, and subculture was performed for about 2 weeks after day 9. The completion of the treatment in Example 1 was evaluated by a positive percentage of a cell surface marker CD75. The cultured human iPS cells were detached with TrypLE™ Select, and stained with Alexa Fluor 647 Mouse Anti-Human CD75 antibody. A positive percentage of CD75 was analyzed by a flow cytometer Attune NxT.

Question: How did the CD75 (any of the cell lines, PD0325901 within the range of 0.3 to 0.5 μmol/L) turn out when `O=C(NOC[C@H](O)CO)c1ccc(F)c(F)c1Nc1ccc(I)cc1F` [PD0325901, N-[(2R)-2,3-dihydroxypropoxy]-3,4-difluoro-2-[(2-fluoro-4-iodophenyl)amino]-benzamide] was run?
Answer: not positive

Question: What about the “positive percentage of CD75” value (three lines of human iPS cells, PD0325901 at 0.3 to 1.0 μmol/L) of the same compound?
Answer: increase in positive percentage of CD75
